{
  "source": "PubChem BioAssay AID2060359",
  "about": "(Molecular Pharmacology Branch, DTP, NCI, 2025)",
  "system": "276233-004-R-J1-PDC spheroids with HUVEC/MSC, viability",
  "assay": "Anticancer human tumor 276233-004-R-J1-PDC patient-derived colon adenocarcinoma cell line growth inhibition [TAK]",
  "settings": "for pIC50: curve of first compound; for viability, T/C: stronger effect = lower value",
  "description": "Combinatorial screen of targeted agents with TAK-243 and ipatasertib in multi-cell type tumor spheroids\nA high-throughput screen of multi-cell type tumor spheroids was designed to identify active combinations of targeted small molecules and TAK-243 or ipatasertib. Complex spheroids include a stromal component modeled by human endothelial cells (HUVEC) and fibroblasts modeled by human mesenchymal stem cells (MSCs). The concentration ranges selected for each drug and investigational agent were based upon clinically achievable concentrations if the clinical Cmax of the agent was known.\nCompounds. The drugs and investigational agents: TAK-243 (785004), ipatasertib (767898), everolimus (733504), selumetinib (741078), bortezomib (756655), trametinib (758246), ixazomib (758254), vemurafenib (761431), dabrafenib (764134), sapanisertib (764658), alpelisib (765974), and copanlisib (816437), were obtained from the National Cancer Institute (NCI) Developmental Therapeutics Program Chemical Repository. The FDA-approved anticancer drug set is available from the NCI Developmental Therapeutics Program. […] The stock solutions were prepared in dimethyl sulfoxide (DMSO, Sigma-Aldrich, St. Louis, MO, cat. D2650) at 800-fold the tested concentration and stored at -70 degrees C prior to their use. All drugs and investigational agents were tested over a range starting from a high concentration at or near the clinical Cmax and decreasing in half-log increments. If the clinical Cmax for an agent had not been determined, the highest concentration tested was 10 microM.\nNCI60 Cell Culture. NCI60 cell lines were obtained from the NCI Developmental Therapeutics Program Tumor Repository. For each lot of cells, the Repository performed Applied Biosystems AmpFLSTR Identifiler testing with PCR amplification to confirm consistency with the published Identifier STR profile for each cell line. Cells were kept in continuous culture for no more than 20 passages. The optimal seeding densities for each of the cell lines at each time point assessed were determined prior to performing the concentration response studies. Briefly, the NCI60 human tumor lines were grown as monolayers in RPMI 1640 medium supplemented with 10% FBS and 2 mmol/L L-glutamine.\nAn additional 2 lines were from the NCI60 cell line panel including melanomas, MALME-3M and SK-MEL-2. Pooled donor human umbilical vein endothelial cells (HUVEC, Lonza, cat. CC-2519) and human mesenchymal stem cells (hMSC, Lonza, cat. PT-2501) were purchased from Lonza (Walkersville, MD).\nPDMR cell lines were grown in complete medium (DC medium): Dulbecco's modified Eagle's medium (DMEM)/F12 supplemented with 5% fetal bovine serum (FBS), 2 mM L-glutamine, 100 U/mL penicillin and 100 µg/ml streptomycin, 0.4 µg/ml hydrocortisone, 10 ng/ml epidermal growth factor (EGF) recombinant human protein, 24 µg/mL adenine, and 0.1 mg/mL primocin. During culture from frozen stock vials, PDMR cells were cultured in the same medium containing 10 µM Y-27632 (see Table 3). The PDCs were cultured in complete DMEM/F12 media without 10 microM Y-27632 dihydrochloride for at least two passages prior to the screen. The pooled donor HUVEC and hMSC were cultured in endothelial cell growth medium 2 (PromoCell, Heidelberg, Germany, cat. C-22011) and mesenchymal stem cell growth medium 2 (PromoCell, cat. C-28009), respectively. For all experiments, HUVEC and hMSC were used at passages </=5.\nFor the pre-screen, cell seeding densities were determined from a titration spanning the range from 5,000 to 313 cells per well. The mct-spheroids including 60% malignant cells, 25% HUVEC and 15% MSC dispensed as a mixture into U-bottom Ultra-Low Attachment 384-well plates (Corning, NY)\nHigh-throughput Drug Combination Screening.\nPrior to their inoculation into 384-well plates, malignant cells, HUVEC, and hMSC were removed from T flasks using TrypLE express (Thermo Fisher Scientific, cat. 12605036) and harvested by centrifugation for 5 min at 233 x g. […]",
  "note": "pIC50: −log10 of the molar value.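 Further: spheroids exposed to drugs for seven days before the viability read.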",
  "data": [
    {"smiles": "CC(C)CC(NC(=O)C(Cc1ccccc1)NC(=O)c1cnccn1)B(O)O", "note": "(stereo not given) + CC(C)NCC(C(=O)N1CCN(c2ncnc3c2C(C)CC3O)CC1)c1ccc(Cl)cc1", "values": [
      {"measurement": "pIC50", "setting": "second compound 0.3 µM", "value": 8.22},
      {"measurement": "pIC50", "setting": "second compound 0.949 µM", "value": 8.27},
      {"measurement": "pIC50", "setting": "second compound 3 µM", "value": 8.42},
      {"measurement": "pIC50", "setting": "second compound 9.49 µM", "value": 8.36},
      {"measurement": "pIC50", "setting": "second compound 30 µM", "value": 8.86},
      {"measurement": "viability, T/C", "setting": "second compound 0.3 µM, first compound 31.6 pM", "value": 103, "unit": "%"},
      {"measurement": "viability, T/C", "setting": "second compound 0.3 µM, first compound 0.0001 µM", "value": 100, "unit": "%"},
      {"measurement": "viability, T/C", "setting": "second compound 0.3 µM, first compound 0.000316 µM", "value": 109, "unit": "%"},
      {"measurement": "viability, T/C", "setting": "second compound 0.3 µM, first compound 0.001 µM", "value": 109, "unit": "%"},
      {"measurement": "viability, T/C", "setting": "second compound 0.3 µM, first compound 0.00316 µM", "value": 104, "unit": "%"},
      {"measurement": "viability, T/C", "setting": "second compound 0.3 µM, first compound 0.01 µM", "value": 6.95, "unit": "%"},
      {"measurement": "viability, T/C", "setting": "second compound 0.949 µM, first compound 31.6 pM", "value": 105, "unit": "%"},
      {"measurement": "viability, T/C", "setting": "second compound 0.949 µM, first compound 0.0001 µM", "value": 106, "unit": "%"},
      {"measurement": "viability, T/C", "setting": "second compound 0.949 µM, first compound 0.000316 µM", "value": 147, "unit": "%"},
      {"measurement": "viability, T/C", "setting": "second compound 0.949 µM, first compound 0.001 µM", "value": 96.8, "unit": "%"},
      {"measurement": "viability, T/C", "setting": "second compound 0.949 µM, first compound 0.00316 µM", "value": 82.9, "unit": "%"},
      {"measurement": "viability, T/C", "setting": "second compound 0.949 µM, first compound 0.01 µM", "value": 13, "unit": "%"},
      {"measurement": "viability, T/C", "setting": "second compound 3 µM, first compound 31.6 pM", "value": 73.4, "unit": "%"},
      {"measurement": "viability, T/C", "setting": "second compound 3 µM, first compound 0.0001 µM", "value": 79.4, "unit": "%"},
      {"measurement": "viability, T/C", "setting": "second compound 3 µM, first compound 0.000316 µM", "value": 81.7, "unit": "%"},
      {"measurement": "viability, T/C", "setting": "second compound 3 µM, first compound 0.001 µM", "value": 80.3, "unit": "%"},
      {"measurement": "viability, T/C", "setting": "second compound 3 µM, first compound 0.00316 µM", "value": 59.1, "unit": "%"},
      {"measurement": "viability, T/C", "setting": "second compound 3 µM, first compound 0.01 µM", "value": 4.72, "unit": "%"},
      {"measurement": "viability, T/C", "setting": "second compound 9.49 µM, first compound 31.6 pM", "value": 61, "unit": "%"},
      {"measurement": "viability, T/C", "setting": "second compound 9.49 µM, first compound 0.0001 µM", "value": 80.3, "unit": "%"},
      {"measurement": "viability, T/C", "setting": "second compound 9.49 µM, first compound 0.000316 µM", "value": 73.4, "unit": "%"},
      {"measurement": "viability, T/C", "setting": "second compound 9.49 µM, first compound 0.001 µM", "value": 66, "unit": "%"},
      {"measurement": "viability, T/C", "setting": "second compound 9.49 µM, first compound 0.00316 µM", "value": 67.7, "unit": "%"},
      {"measurement": "viability, T/C", "setting": "second compound 9.49 µM, first compound 0.01 µM", "value": 4.19, "unit": "%"},
      {"measurement": "viability, T/C", "setting": "second compound 30 µM, first compound 31.6 pM", "value": 56, "unit": "%"},
      {"measurement": "viability, T/C", "setting": "second compound 30 µM, first compound 0.0001 µM", "value": 53.2, "unit": "%"},
      {"measurement": "viability, T/C", "setting": "second compound 30 µM, first compound 0.000316 µM", "value": 55.3, "unit": "%"},
      {"measurement": "viability, T/C", "setting": "second compound 30 µM, first compound 0.001 µM", "value": 61.4, "unit": "%"},
      {"measurement": "viability, T/C", "setting": "second compound 30 µM, first compound 0.00316 µM", "value": 33.3, "unit": "%"},
      {"measurement": "viability, T/C", "setting": "second compound 30 µM, first compound 0.01 µM", "value": 20.5, "unit": "%"}
    ]}
  ]
}
